Source: ChEMBL document CHEMBL1128686, “Technetium-99m-labeled HOE 140: a potential bradykinin B2 receptor imaging agent” (J Med Chem, 1995)

Target: T1, B2 bradykinin receptor (Cavia porcellus, UniProt O70526)
T1 sequence (O70526 whole entry): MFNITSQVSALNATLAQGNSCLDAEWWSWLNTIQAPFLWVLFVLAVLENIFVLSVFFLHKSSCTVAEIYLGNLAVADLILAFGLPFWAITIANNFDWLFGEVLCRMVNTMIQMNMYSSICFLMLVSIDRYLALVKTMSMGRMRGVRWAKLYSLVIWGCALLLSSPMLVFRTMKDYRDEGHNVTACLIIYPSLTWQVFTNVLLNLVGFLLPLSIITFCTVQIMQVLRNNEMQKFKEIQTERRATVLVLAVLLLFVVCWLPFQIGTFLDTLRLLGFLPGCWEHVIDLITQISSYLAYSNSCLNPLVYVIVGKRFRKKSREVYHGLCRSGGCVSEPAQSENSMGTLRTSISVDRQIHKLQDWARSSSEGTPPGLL
Assay: In vitro antagonistic activity for Bradykinin receptor B2 by guinea pig ileal membrane receptor assay.
Assay type: functional

- IC50: 1.07 nM
Compound: NC(N)=NCCC[C@@H](N)C(=O)N[C@@H](CCCN=C(N)N)C(=O)N1CCC[C@H]1C(=O)N1C[C@H](O)C[C@H]1C(=O)NCC(=O)N[C@@H](Cc1cccs1)C(=O)N[C@@H](CO)C(=O)N1Cc2ccccc2C[C@@H]1C(=O)N1[C@H](C(=O)N[C@@H](CCCN=C(N)N)C(=O)O)C[C@@H]2CCCC[C@@H]21 [ICATIBANT]
